Source: patent US4515941A, “23-Demycinosyldesmycosin derivatives” (Toyo Jozo Kabushiki Kaisha, priority 1982, dated 1985)
≈ marks a conversion by molar mass, not a printed value. Where two headings read alike, the source gives them in different places.

Experiments:
Assay type in all cases: cell-based
[1] = tested on: Staphylococcus epidermis sp-al-1; experiment: MIC, Staphylococcus epidermis sp-al-1
[2] = tested on: Streptococcus agalactiae 1020; experiment: MIC, Streptococcus agalactiae 1020
[3] = tested on: Staphylococcus aureus ATCC 6538P; experiment: MIC, Staphylococcus aureus ATCC 6538P; details: ATCC6538P
[4] = tested on: Staphylococcus aureus 0127; experiment: MIC, Staphylococcus aureus 0127 (macrolide resistant); details: Staphylococcus aureus 0127; macrolide resistant bacteria A group; read-out: MIC
Excerpt: (§1) *macrolide resistant bacteria A group (clinical isolates of erythromycin,
(§2) oleandomycin and 16membered macrolide antibiotic resistant strains.)

[5] = tested on: Shigella sonnei E33; experiment: MIC, Shigella sonnei E33
[6] = tested on: Escherichia coli NIHJ-JC2; experiment: MIC, Escherichia coli NIHJ-JC2; details: NIHJJC2
[7] = tested on: Proteus vulgaris OX19; experiment: MIC, Proteus vulgaris OX19
[8] = tested on: Salmonella typhosa H901; experiment: MIC, Salmonella typhosa H901; details: Salmonella enterica, TYPHOSA
[9] = tested on: Klebsiella pneumoniae ATCC 10031; experiment: MIC, Klebsiella pneumoniae ATCC 10031
[10] = tested on: Sarcina lutea ATCC 9341; experiment: MIC, Sarcina lutea ATCC 9341; details: Micrococcus luteus, ATCC9341
[11] = tested on: Staphylococcus aureus MS353 A0; experiment: MIC, Staphylococcus aureus MS353 A0 (macrolide resistant); details: MS353A0, macrolide resistant bacteria A group
Excerpt: as §1, §2

[12] = tested on: Staphylococcus aureus MS353; experiment: MIC, Staphylococcus aureus MS353
[13] = tested on: Streptococcus pyogenes 1022; experiment: MIC, Streptococcus pyogenes 1022 (macrolide resistant); details: macrolide resistant bacteria A group
Excerpt: as §1, §2

[14] = tested on: Corynebacterium diptheriae P.Y.8; experiment: MIC, Corynebacterium diptheriae P.Y.8
[15] = tested on: Streptococcus faecalis 1501; experiment: MIC, Streptococcus faecalis 1501
[16] = tested on: Bacillus subtilis ATC 6633; experiment: MIC, Bacillus subtilis ATC 6633
[17] = tested on: Streptococcus pyogenes N.Y.5; experiment: MIC, Streptococcus pyogenes N.Y.5
[18] = tested on: Pseudomonas aeruginosa IAM 1095; experiment: MIC, Pseudomonas aeruginosa IAM 1095; details: IAM1095
[19] = tested on: Staphylococcus aureus MS353 C36; experiment: MIC, Staphylococcus aureus MS353 C36; details: MS353C36
[20] = tested on: Serratia marcescens; experiment: MIC, Serratia marcescens
[21] = tested on: Micrococcus flavus ATCC 10240; experiment: MIC, Micrococcus flavus ATCC 10240; details: Micrococcus flavus, ATCC10240
[22] = tested on: Shigella flexineri type 3a; experiment: MIC, Shigella flexineri type 3a; details: TYPE3A
[23] = tested on: Salmonella enteritidis Gaertner; experiment: MIC, Salmonella enteritidis Gaertner; details: Salmonella enterica, ENTERITIDIS
[24] = SPAL1, Staphylococcus epidermis sp-al-1, read-out: MIC
[25] = Streptococcus agalactiae 1020, read-out: MIC
[26] = Proteus vulgaris OX19, read-out: MIC
[27] = ATCC10031, Klebsiella pneumoniae ATCC 10031, read-out: MIC
[28] = Staphylococcus aureus MS353, read-out: MIC
[29] = Streptococcus pyogenes 1022, read-out: MIC
[30] = Corynebacterium diptheriae P.Y.8, read-out: MIC
[31] = Enterococcus faecalis, Streptococcus faecalis 1501, read-out: MIC
[32] = ATC6633, Bacillus subtilis ATC 6633, read-out: MIC
[33] = Pseudomonas aeruginosa IAM 1095, read-out: MIC

SMILES	MIC [1, 24] [µg/mL]	MIC [2, 25] [µg/mL]	MIC ([3]; read-out: MIC) [µg/mL]	MIC [5] [µg/mL]	MIC [6] [µg/mL]	MIC [7, 26] [µg/mL]	MIC [8] [µg/mL]	MIC [9, 27] [µg/mL]	MIC [10] [µg/mL]	MIC [11] [µg/mL]	MIC [12, 28] [µg/mL]	MIC [13, 29] [µg/mL]	MIC [14, 30] [µg/mL]	MIC [15, 31] [µg/mL]	MIC [16, 32] [µg/mL]	MIC ([17]; read-out: MIC) [µg/mL]	MIC [18, 33] [µg/mL]	other results
CCC1OC(=O)CC(O)C(C)C(OC2OC(C)C(O)C(N(C)C)C2O)C(CC=O)CC(C)C(=O)C=CC(C)=CC1COCc1ccccc1 (centres unmarked) [OCH 2 C6 H5, 23-O-benzyl-23-demycinosyldesmycosin]	≤ 0.05	≤ 0.05	≤ 0.05	25 (≈ 36.3 µM)	25 (≈ 36.3 µM)	3.1 (≈ 4.51 µM)	100 (≈ 145 µM)	6.3 (≈ 9.16 µM)	≤ 0.05	50 (≈ 72.7 µM)	≤ 0.05	3.1 (≈ 4.51 µM)	≤ 0.05	0.05 (≈ 0.0727 µM)	≤ 0.05	≤ 0.05	50 (≈ 72.7 µM)	MIC [4]: 100 µg/mL (≈ 145 µM)
CCC1OC(=O)CC(O)C(C)C(OC2OC(C)C(O)C(N(C)C)C2O)C(CC=O)CC(C)C(=O)C=CC(C)=CC1CSCCc1ccccc1 (centres unmarked) [S(CH2)2 C6 H5, 23-(2-phenylethyl)thio-23-demycinosyl-23-deoxydesmycosin]	≤ 0.05	≤ 0.05	0.1 (≈ 0.139 µM)	25 (≈ 34.8 µM)	50 (≈ 69.6 µM)	12.5 (≈ 17.4 µM)	> 100	3.1 (≈ 4.32 µM)	≤ 0.05	50 (≈ 69.6 µM)	0.1 (≈ 0.139 µM)	–	–	0.1 (≈ 0.139 µM)	0.1 (≈ 0.139 µM)	≤ 0.05	> 100	MIC ([13]; Streptococcus pyogenes, 1022, Streptococcus pyogenes 1022): 25 µg/mL (≈ 34.8 µM)
CCC1OC(=O)CC(O)C(C)C(OC2OC(C)C(O)C(N(C)C)C2O)C(CC=O)CC(C)C(=O)C=CC(C)=CC1CSc1ccccc1 (centres unmarked) [SC6 H5]	≤ 0.05	≤ 0.05	0.1 (≈ 0.145 µM)	50 (≈ 72.5 µM)	50 (≈ 72.5 µM)	12.5 (≈ 18.1 µM)	50 (≈ 72.5 µM)	1.6 (≈ 2.32 µM)	≤ 0.05	25 (≈ 36.2 µM)	0.1 (≈ 0.145 µM)	25 (≈ 36.2 µM)	≤ 0.05	≤ 0.05	0.1 (≈ 0.145 µM)	≤ 0.05	100 (≈ 145 µM)	–
CCC1OC(=O)CC(O)C(C)C(OC2OC(C)C(O)C(N(C)C)C2O)C(CC=O)CC(C)C(=O)C=CC(C)=CC1CSCc1ccccc1 (centres unmarked) [SCH2 C6 H5, 23-benzylthio-23-demycinosyl-23-deoxydesmycosin]	≤ 0.05	≤ 0.05	≤ 0.05	25 (≈ 35.5 µM)	50 (≈ 71 µM)	6.3 (≈ 8.95 µM)	50 (≈ 71 µM)	1.6 (≈ 2.27 µM)	≤ 0.05	50 (≈ 71 µM)	≤ 0.05	–	≤ 0.05	≤ 0.05	0.1 (≈ 0.142 µM)	≤ 0.05	100 (≈ 142 µM)	–
CC[C@H]1OC(=O)C[C@@H](O)[C@H](C)[C@@H](O[C@@H]2O[C@H](C)[C@@H](O[C@H]3C[C@@](C)(O)[C@@H](O)[C@H](C)O3)[C@H](N(C)C)[C@H]2O)[C@@H](CC=O)C[C@@H](C)C(=O)/C=C/C(C)=C/[C@@H]1CO[C@@H]1O[C@H](C)[C@@H](O)[C@@H](OC)[C@H]1OC [TS, tylosin, reference compound]	–	–	–	> 100	–	–	> 100	–	≤ 0.05	–	–	–	–	–	–	–	–	MIC ([1]; Staphylococcus, SPAL1, Staphylococcus epidermis sp-al-1): 0.4 µg/mL (≈ 0.437 µM); MIC ([2]; Streptococcus agalactiae 1020): 0.4 µg/mL (≈ 0.437 µM); MIC ([2]; Streptococcus agalactiae, 1020, Streptococcus agalactiae 1020): 0.2 µg/mL (≈ 0.218 µM); MIC ([3]; Staphylococcus aureus): 0.8 µg/mL (≈ 0.873 µM); MIC [19]: 0.4 µg/mL (≈ 0.437 µM); MIC ([7]; Proteus vulgaris, OX19, Proteus vulgaris OX19): > 100 µg/mL; MIC ([9]; Klebsiella pneumoniae ATCC 10031): 100 µg/mL (≈ 109 µM); MIC ([9]; Klebsiella pneumoniae, ATCC10031, Klebsiella pneumoniae ATCC 10031): 50 µg/mL (≈ 54.6 µM); MIC ([12]; Staphylococcus aureus, MS353, Staphylococcus aureus MS353): 0.8 µg/mL (≈ 0.873 µM); MIC [20]: > 100 µg/mL; MIC ([14]; Corynebacterium, P.Y.8): ≤ 0.05 µg/mL; MIC ([15]; Enterococcus faecalis, 1501, Streptococcus faecalis 1501): 0.8 µg/mL (≈ 0.873 µM); MIC ([15]; Streptococcus faecalis 1501): 1.6 µg/mL (≈ 1.75 µM); MIC ([16]; Bacillus subtilis, ATC6633, Bacillus subtilis ATC 6633): 0.2 µg/mL (≈ 0.218 µM); MIC [17]: 0.1 µg/mL (≈ 0.109 µM); MIC [21]: ≤ 0.05 µg/mL; MIC [22]: 50 µg/mL (≈ 54.6 µM); MIC ([18]; Pseudomonas aeruginosa): > 100 µg/mL; MIC [23]: > 100 µg/mL
